{
  "source": "the NIST ThermoML archive (doi:10.1016/j.jct.2018.11.015)",
  "conditions": "Liquid",
  "note": "Numbers after ± are expanded uncertainties.",
  "data": [
    {"smiles": "CCCCOC(=O)c1ccccc1C(=O)OCc1ccccc1", "note": "[benzyl butyl 1,2-benzenedioate]", "values": [
      {"measurement": "vapor or sublimation pressure", "setting": "343.15 K, Transpiration method", "result": "1.4e-05 ± 2e-06", "unit": "kPa"},
      {"measurement": "vapor or sublimation pressure", "setting": "353.15 K, Transpiration method", "result": "5.6e-05 ± 9e-06", "unit": "kPa"},
      {"measurement": "vapor or sublimation pressure", "setting": "373.15 K, Transpiration method", "result": "0.00039 ± 5e-05", "unit": "kPa"},
      {"measurement": "vapor or sublimation pressure", "setting": "393.15 K, Transpiration method", "result": "0.0022 ± 0.00031", "unit": "kPa"},
      {"measurement": "vapor or sublimation pressure", "setting": "423.15 K, Transpiration method", "result": "0.0238 ± 0.0034", "unit": "kPa"}
    ]},
    {"smiles": "COC(=O)c1ccccc1C(=O)OC", "note": "[dimethyl 1,2-benzenedicarboxylate]", "values": [
      {"measurement": "vapor or sublimation pressure", "setting": "313.15 K, Transpiration method", "result": "0.00141 ± 0.00023", "unit": "kPa"},
      {"measurement": "vapor or sublimation pressure", "setting": "333.15 K, Transpiration method", "result": "0.00789 ± 0.00067", "unit": "kPa"},
      {"measurement": "vapor or sublimation pressure", "setting": "350.9 K, Closed cell (Static) method", "result": "0.0297 ± 0.0019", "unit": "kPa"},
      {"measurement": "vapor or sublimation pressure", "setting": "353.15 K, Transpiration method", "result": "0.0332 ± 0.0022", "unit": "kPa"},
      {"measurement": "vapor or sublimation pressure", "setting": "361.52 K, Closed cell (Static) method", "result": "0.0589 ± 0.0037", "unit": "kPa"},
      {"measurement": "vapor or sublimation pressure", "setting": "371.6 K, Closed cell (Static) method", "result": "0.1104 ± 0.0069", "unit": "kPa"},
      {"measurement": "vapor or sublimation pressure", "setting": "373.15 K, Transpiration method", "result": "0.122 ± 0.007", "unit": "kPa"},
      {"measurement": "vapor or sublimation pressure", "setting": "381.69 K, Closed cell (Static) method", "result": "0.1986 ± 0.012", "unit": "kPa"},
      {"measurement": "vapor or sublimation pressure", "setting": "391.77 K, Closed cell (Static) method", "result": "0.3453 ± 0.021", "unit": "kPa"},
      {"measurement": "vapor or sublimation pressure", "setting": "393.15 K, Transpiration method", "result": "0.391 ± 0.024", "unit": "kPa"},
      {"measurement": "vapor or sublimation pressure", "setting": "401.71 K, Closed cell (Static) method", "result": "0.5751 ± 0.035", "unit": "kPa"},
      {"measurement": "vapor or sublimation pressure", "setting": "411.72 K, Closed cell (Static) method", "result": "0.9413 ± 0.038", "unit": "kPa"},
      {"measurement": "vapor or sublimation pressure", "setting": "421.57 K, Closed cell (Static) method", "result": "1.491 ± 0.06", "unit": "kPa"},
      {"measurement": "vapor or sublimation pressure", "setting": "423.15 K, Transpiration method", "result": "1.668 ± 0.09", "unit": "kPa"}
    ]}
  ]
}
